Reference: patent publication US9133157B2, “HIV protease inhibitors” (Merck Canada Inc., priority 2011, dated 2015)

Target: WT HIV-1 protease (Human immunodeficiency virus type 1 group M subtype B (isolate HXB2) (HIV-1), UniProt P04585)
Test: Assay for inhibition of microbial expressed HIV protease (Procedure A, peptide substrate, HPLC fluorescence detection)
Type: biochemical
Settings: WT HIV-1 protease 10 pM, substrate 400 micromolar, pH 5.5, 30 min preincubation, 1 hour at 30° C.; read-out: Enzyme inhibition IC50
Protocol: The inhibition of WT HIV-1 protease was studied using the reaction of the protease (expressed in Eschericia coli) with a peptide substrate [Val-Ser-Gln-Asn-(betanaphthyl)Ala-Pro-Ile-Val (SEQ ID NO:1)]. Compounds were tested using Procedure A. In Procedure A, the test compound was first preincubated with the enzyme in assay buffer (50 mM sodium acetate, pH 5.5, 100 mM NaCl, and 0.1% BSA) for 30 minutes at room temperature. Substrate was then added to 400 micromolar in a total volume of 80 microliters containing 10 picomolar HIV-1 protease and the reaction was incubated for 1 hour at 30° C. The reaction was quenched with the addition of 120 microliters of 10% phosphoric acid. The product formation was determined after separation of product and substrate on a Zorbax Eclipse XDB-C18 column (Agilent Technologies, Santa Clara, Calif.) connected to an Agilent 1100 high performance liquid chromatography system with fluorescence detection (excitation 270 nanometer and emission 330 nanometer).

SMILES | IC50
COC(=O)N[C@H](C(=O)NCc1csc(C(CO)N(CCC(C)C)S(=O)(=O)c2ccccc2)c1)C(c1ccccc1)c1ccccc1 (stereo partly drawn) [Example 1, N-[(5-{2-hydroxy-1-[(3-methylbutyl)(phenylsulfonyl)amino]ethyl}thiophen-3-yl)methyl]-Nα-(methoxycarbonyl)-β-phenyl-L-phenylalaninamide] | 72.8 nM
COC(=O)N[C@H](C(=O)NCc1cnc(C(CO)N(CCC(C)C)S(=O)(=O)c2ccccc2)s1)C(c1ccccc1)c1ccccc1 (stereo partly drawn) [Example 2, N-[(2-{2-hydroxy-1-[(3-methylbutyl)(phenylsulfonyl)amino]ethyl}-1,3-thiazol-5-yl)methyl]-Nα-(methoxycarbonyl)-β-phenyl-L-phenylalaninamide] | 250 nM
COC(=O)N[C@H](C(=O)NCc1ncc(C(CO)N(CCC(C)C)S(=O)(=O)c2ccccc2)s1)C(c1ccccc1)c1ccccc1 (stereo partly drawn) [Example 3, N-[(5-{2-hydroxy-1-[(3-methylbutyl)(phenylsulfonyl)amino]ethyl}-1,3-thiazol-2-yl)methyl]-Nα-(methoxycarbonyl)-β-phenyl-L-phenylalaninamide] | 12.1 nM
COC(=O)N[C@H](C(=O)NCc1ccc(C(CO)N(CCC(C)C)S(=O)(=O)c2ccccc2)s1)C(c1ccccc1)c1ccccc1 (stereo partly drawn) [Example 4] | 8.81 nM
COC(=O)N[C@H](C(=O)NCc1ccc(C(CO)N(CCC(C)C)S(=O)(=O)c2ccc(CO)cc2)s1)C(c1ccccc1)c1ccccc1 (stereo partly drawn) [Example 5] | 0.54 nM
COC(=O)N[C@H](C(=O)NCc1cc(C(CO)N(CCC(C)C)S(=O)(=O)c2ccccc2)cs1)C(c1ccccc1)c1ccccc1 (stereo partly drawn) [Example 6, N-[(4-{2-hydroxy-1-[(3-methylbutyl)(phenylsulfonyl)amino]ethyl}thiophen-2-yl)methyl]-Nα-(methoxycarbonyl)-β-phenyl-L-phenylalaninamide] | 42.7 nM
COC(=O)N[C@H](C(=O)NC(C)c1ccc(C(CO)N(CCC(C)C)S(=O)(=O)c2ccccc2)s1)C(c1ccccc1)c1ccccc1 (stereo partly drawn) [Example 7, N-[1-(5-{2-hydroxy-1-[(3-methylbutyl)(phenylsulfonyl)amino]ethyl}thiophen-2-yl)ethyl]-Nα-(methoxycarbonyl)-β-phenyl-L-phenylalaninamide] | 3.5 nM
COC(=O)N[C@H](C(=O)NC(C)c1ccc(C(CO)N(CCC(C)C)S(=O)(=O)c2ccc(CO)cc2)s1)C(c1ccccc1)c1ccccc1 (stereo partly drawn) [Example 8] | 0.31 nM
CCC(NC(=O)[C@@H](NC(=O)OC)C(c1ccccc1)c1ccccc1)c1ccc(C(CO)N(CCC(C)C)S(=O)(=O)c2ccc(CO)cc2)s1 (stereo partly drawn) [Example 9] | 0.63 nM
COC(=O)N[C@H](C(=O)NCc1ccc([C@@H](CO)N(CC(C)C)S(=O)(=O)c2ccc(N)cc2)s1)C(c1ccccc1)c1ccccc1 [Example 10, N-({5-[(1R)-1-{[(4-aminophenyl)sulfonyl](2-methylpropyl)amino}-2-hydroxyethyl]thiophen-2-yl}methyl)-Nα-(methoxycarbonyl)-β-phenyl-L-phenylalaninamide] | 2.6 nM
COC(=O)N[C@H](C(=O)NCc1ccc([C@@H](CO)N(CC2CC(F)(F)C2)S(=O)(=O)c2ccc(N)cc2)s1)C(c1ccccc1)c1ccccc1 [Example 11] | 1.61 nM
COC(=O)N[C@H](C(=O)NCc1ccc([C@@H](CO)N(C(C)C)S(=O)(=O)c2ccc(N)cc2)s1)C(c1ccccc1)c1ccccc1 [Example 12] | 18.8 nM
COC(=O)N[C@H](C(=O)NCc1ccc([C@@H](CO)N(Cc2cc3cccnc3[nH]2)S(=O)(=O)c2ccc(N)cc2)s1)C(c1ccccc1)c1ccccc1 [Example 13] | 3.9 nM
COC(=O)N[C@H](C(=O)NCc1ccc([C@@H](CO)N(CC(C)C)S(=O)(=O)c2cccc(CC(C)(C)O)c2)s1)C(c1ccccc1)c1ccccc1 [Example 14] | 4.1 nM
COC(=O)N[C@H](C(=O)NCc1ccc([C@@H](CO)N(CC2CC(F)(F)C2)S(=O)(=O)c2cccc(CC(C)(C)O)c2)s1)C(c1ccccc1)c1ccccc1 [Example 15] | 6.6 nM
COC(=O)N[C@H](C(=O)NCc1ccc([C@@H](CO)N(CC2CC(F)(F)C2)S(=O)(=O)c2ccc3cc[nH]c(=O)c3c2)s1)C(c1ccccc1)c1ccccc1 [Example 16] | 0.44 nM
COC(=O)N[C@H](C(=O)NCc1ccc([C@@H](CO)N(CC2CC(F)(F)C2)S(=O)(=O)c2ccc3c(c2)COCC3)s1)C(c1ccccc1)c1ccccc1 [Example 17] | 2.4 nM
COC(=O)N[C@H](C(=O)NCc1ccc([C@@H](CO)N(Cc2nonc2C)S(=O)(=O)c2ccc(N)cc2)s1)C(c1ccccc1)c1ccccc1 [Example 18] | 6.95 nM
COC(=O)N[C@H](C(=O)NCc1ccc([C@@H](CO)N(Cc2cnon2)S(=O)(=O)c2ccc(N)cc2)s1)C(c1ccccc1)c1ccccc1 [Example 19] | 33.8 nM
COC(=O)N[C@H](C(=O)NCc1ccc(C(CO)N(Cc2cnon2)S(=O)(=O)c2ccc(N)cc2)s1)C(c1ccccc1)c1ccccc1 (stereo partly drawn) [Example 20] | 6.97 nM
COC(=O)N[C@H](C(=O)NCc1ccc(C(CO)N(C(C)C)S(=O)(=O)c2ccc3scnc3c2)s1)C(c1ccccc1)c1ccccc1 (stereo partly drawn) [Example 21] | 62.4 nM

SMILES | IC50
COC(=O)N[C@H](C(=O)NCc1ccc([C@@H](CO)N(CC(C)C)S(=O)(=O)c2ccc3scnc3c2)s1)C(c1ccccc1)c1ccccc1 [Example 22] | 6.1 nM
COC(=O)N[C@H](C(=O)NCc1ccc([C@H](CO)N(CC(C)C)S(=O)(=O)c2ccc3scnc3c2)s1)C(c1ccccc1)c1ccccc1 [Example 23] | 60.9 nM
COC(=O)N[C@H](C(=O)NCc1ccc(C(CO)N(Cc2cc3ccccc3[nH]2)S(=O)(=O)c2ccc3scnc3c2)s1)C(c1ccccc1)c1ccccc1 (stereo partly drawn) [Example 24] | 13.6 nM
COC(=O)N[C@H](C(=O)NCc1ccc([C@@H](CO)N(Cc2cc3ccccc3[nH]2)S(=O)(=O)c2ccc3scnc3c2)s1)C(c1ccccc1)c1ccccc1 [Example 25] | 7.99 nM
COC(=O)N[C@H](C(=O)NCc1ccc(C(CO)N(Cc2cccnc2OC)S(=O)(=O)c2ccc3scnc3c2)s1)C(c1ccccc1)c1ccccc1 (stereo partly drawn) [Example 26] | 31 nM
COC(=O)N[C@H](C(=O)NCc1ccc(C(CO)N(Cc2ccnc(OC)c2)S(=O)(=O)c2ccc3scnc3c2)s1)C(c1ccccc1)c1ccccc1 (stereo partly drawn) [Example 27] | 15.5 nM
COC(=O)N[C@H](C(=O)NCc1ccc([C@@H](CO)N(Cc2ccnc(OC)c2)S(=O)(=O)c2ccc3scnc3c2)s1)C(c1ccccc1)c1ccccc1 [Example 28] | 1.45 nM
COC(=O)N[C@H](C(=O)NCc1ccc([C@H](CO)N(Cc2ccnc(OC)c2)S(=O)(=O)c2ccc3scnc3c2)s1)C(c1ccccc1)c1ccccc1 [Example 29] | 106 nM
COC(=O)N[C@H](C(=O)NCc1ccc(C(CO)N(Cc2cnn(S(=O)(=O)N(C)C)c2)S(=O)(=O)c2ccc3scnc3c2)s1)C(c1ccccc1)c1ccccc1 (stereo partly drawn) [Example 30] | 5.13 nM
COC(=O)N[C@H](C(=O)NCc1ccc(C(CO)N(Cc2cn[nH]c2)S(=O)(=O)c2ccc3scnc3c2)s1)C(c1ccccc1)c1ccccc1 (stereo partly drawn) [Example 31] | 3.62 nM
COC(=O)N[C@H](C(=O)NCc1ccc([C@@H](CO)N(Cc2cn[nH]c2)S(=O)(=O)c2ccc3scnc3c2)s1)C(c1ccccc1)c1ccccc1 [Example 32] | 2.27 nM
COC(=O)N[C@H](C(=O)NCc1ccc([C@H](CO)N(Cc2cn[nH]c2)S(=O)(=O)c2ccc3scnc3c2)s1)C(c1ccccc1)c1ccccc1 [Example 33] | 96.6 nM
COC(=O)N[C@H](C(=O)NCc1ccc(C(CO)N(Cc2cc3cccnc3[nH]2)S(=O)(=O)c2ccc3scnc3c2)s1)C(c1ccccc1)c1ccccc1 (stereo partly drawn) [Example 34] | 35 nM
COC(=O)N[C@H](C(=O)NCc1ccc([C@@H](CO)N(Cc2cc3cccnc3[nH]2)S(=O)(=O)c2ccc3scnc3c2)s1)C(c1ccccc1)c1ccccc1 [Example 35] | 11.9 nM
COC(=O)N[C@H](C(=O)NCc1ccc(C(CO)N(CC2CC(F)(F)C2)S(=O)(=O)c2ccc3c(c2)CCC3O)s1)C(c1ccccc1)c1ccccc1 (stereo partly drawn) [Example 36] | 3.65 nM
COC(=O)N[C@H](C(=O)NCc1ccc([C@@H](CO)N(CC2CC(F)(F)C2)S(=O)(=O)c2ccc3c(c2)CCC3O)s1)C(c1ccccc1)c1ccccc1 (stereo partly drawn) [Example 37] | 5.65 nM
COC(=O)N[C@H](C(=O)NCc1ccc([C@@H](CO)N(CC2CC(F)(F)C2)S(=O)(=O)c2ccc3c(c2)C(O)CC3)s1)C(c1ccccc1)c1ccccc1 (stereo partly drawn) [Example 38] | 13.6 nM
COC(=O)N[C@H](C(=O)NCc1ccc([C@@H](CO)N(CC2CC(F)(F)C2)S(=O)(=O)c2cccc(C(=O)c3ccccn3)c2)s1)C(c1ccccc1)c1ccccc1 [Example 40] | 175 nM
COC(=O)N[C@H](C(=O)NCc1ccc([C@@H](CO)N(CC2CC(F)(F)C2)S(=O)(=O)c2ccc3cc[nH]c3c2)s1)C(c1ccccc1)c1ccccc1 [Example 41] | 8.83 nM
COC(=O)N[C@H](C(=O)NCc1ccc([C@@H](CO)N(CC2CC(F)(F)C2)S(=O)(=O)c2cccc(Cc3ccccn3)c2)s1)C(c1ccccc1)c1ccccc1 [Example 42] | 110 nM
COC(=O)N[C@H](C(=O)NCc1ccc([C@@H](CO)N(CC2CC(F)(F)C2)S(=O)(=O)c2ccc(N)c(F)c2)s1)C(c1ccccc1)c1ccccc1 [Example 43] | 5.04 nM
